Reference: publication PMC12084609, “Structural insights into small-molecule agonist recognition and activation of complement receptor C3aR” (The EMBO Journal, 2025)
Changes are numbered by the printed parent chain. Several values for one entry are separate records, joined by “and”; a condition that tells them apart may be missing. Identical values can stand only once. Like-named read-outs stand apart in the source and are kept apart here.

How the values were obtained:
Assay type in all cases: cell-based
C3aR I98^3.28A = biological target: T1, C3aR I98^3.28A (Homo sapiens, UniProt Q16581, I98A); test: GloSensor-based cAMP assay, C3aR mutant I98A
T1 construct: expressed in transfected cells; host or cells: HEK293T
T1 sequence (Q16581 1-482 I98A): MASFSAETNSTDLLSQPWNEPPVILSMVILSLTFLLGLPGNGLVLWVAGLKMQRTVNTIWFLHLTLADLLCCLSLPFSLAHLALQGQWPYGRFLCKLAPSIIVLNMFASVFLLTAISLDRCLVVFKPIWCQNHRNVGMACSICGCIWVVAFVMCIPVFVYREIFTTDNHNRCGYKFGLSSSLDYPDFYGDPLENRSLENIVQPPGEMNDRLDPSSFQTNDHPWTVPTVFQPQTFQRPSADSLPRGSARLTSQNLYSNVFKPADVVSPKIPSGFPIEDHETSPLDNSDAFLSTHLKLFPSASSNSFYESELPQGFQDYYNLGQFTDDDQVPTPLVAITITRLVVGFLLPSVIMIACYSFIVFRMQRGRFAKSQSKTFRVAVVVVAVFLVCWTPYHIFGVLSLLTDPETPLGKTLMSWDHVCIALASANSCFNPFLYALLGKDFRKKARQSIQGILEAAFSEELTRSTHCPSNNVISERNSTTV
Protocol: (§1) HEK293T cells were seeded on 6-well plates (NEST) and transfected with pGlosensor™-22F plasmids (Promega) and pcDNA3.1 plasmids encoding C3aR or its mutants an with N-terminal FLAG tag. After 48 h, cells were detached with Accutase solution (Sigma-Aldrich) and washed with PBS, and resuspended in assay buffer (CO2-independent medium with 0.5 mg mL^−1D-luciferin). 100,000–200,000 cells were seeded on 96-well white bottom plates (SPL) and incubated at 37 °C for 45 min followed by 45 min incubation at room temperature. After 90 min of incubation, basal luminescence signals were recorded. In total, 25 μl of test ligand with various concentrations and 1 μM Forskolin (Sigma-Aldrich) were treated to the cells and luminescence signals were measured by Tristar 2 LB 942 multimode reader (Berthold). […] Relative luminescence unit (%) was calculated with the signal of wells treated with vehicle as 0% and the signal of wells treated with 1 μM Forskolin as 100% (DiRaddo et al, [2014]). Nonlinear regression was performed using a three-parameter logistic equation.

C3aR H81^2.63A = biological target: T2, C3aR H81^2.63A (Homo sapiens, UniProt Q16581, H81A); test: GloSensor-based cAMP assay, C3aR mutant H81A
T2 construct: expressed in transfected cells; host or cells: HEK293T
T2 sequence (Q16581 1-482 H81A): T1 sequence (Q16581 1-482 I98A) with H81A, A98I
Protocol: as §1

[1] = biological target: T3, C3aR I102^3.32A/I421^7.39A (Homo sapiens, UniProt Q16581, I102A/I421A); test: GloSensor-based cAMP assay, C3aR double mutant I102A/I421A
T3 construct: expressed in transfected cells; host or cells: HEK293T
T3 sequence (Q16581 1-482 I102A/I421A): T1 sequence (Q16581 1-482 I98A) with A98I, I102A, I421A
Protocol: as §1

C3aR = C3aR (Homo sapiens, UniProt Q16581); test: Gi recruitment BRET assay (C3aR-eYFP / Gαi-Rluc8, HEK293T); details: for ΔBRET (ligand-vehicle): individual replicates
Protocol: HEK293T cells were seeded on 6-well plates (NEST) and transfected with pcDNA3.1 plasmids encoding C3aR-eYFP, Gαi-Rluc8, Gβ1, and Gγ2 with a ratio of 5:1:1:1. After 48 h, cells were harvested and resuspended with in PBS. Cells were treated with test ligand with various concentrations and seeded on 96-well white bottom plates (SPL). After 3 min incubation at 37 °C, coelenterazine h (Nanolight) was added with a final concentration of 10 μM. Luminescence and fluorescence were measured using a Tristar 2 LB 942 multimode reader (Berthold).

[2] = Dunnett's multiple comparisons test, WT minus mutant

Chain of C3aR (Q16581 whole entry): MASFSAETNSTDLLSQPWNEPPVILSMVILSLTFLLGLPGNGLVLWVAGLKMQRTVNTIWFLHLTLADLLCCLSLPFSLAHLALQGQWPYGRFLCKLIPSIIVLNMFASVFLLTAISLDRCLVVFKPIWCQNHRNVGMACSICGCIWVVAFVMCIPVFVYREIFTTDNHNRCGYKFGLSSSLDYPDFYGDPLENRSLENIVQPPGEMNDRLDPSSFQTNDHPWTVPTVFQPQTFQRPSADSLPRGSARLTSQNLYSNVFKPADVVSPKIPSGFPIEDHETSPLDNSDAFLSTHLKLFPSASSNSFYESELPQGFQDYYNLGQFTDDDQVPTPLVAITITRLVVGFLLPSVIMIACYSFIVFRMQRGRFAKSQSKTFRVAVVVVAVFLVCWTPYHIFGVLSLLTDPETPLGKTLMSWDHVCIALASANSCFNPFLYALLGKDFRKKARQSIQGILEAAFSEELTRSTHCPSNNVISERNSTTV
Chain of C3aR (P63096 2-354 partner limits assumed): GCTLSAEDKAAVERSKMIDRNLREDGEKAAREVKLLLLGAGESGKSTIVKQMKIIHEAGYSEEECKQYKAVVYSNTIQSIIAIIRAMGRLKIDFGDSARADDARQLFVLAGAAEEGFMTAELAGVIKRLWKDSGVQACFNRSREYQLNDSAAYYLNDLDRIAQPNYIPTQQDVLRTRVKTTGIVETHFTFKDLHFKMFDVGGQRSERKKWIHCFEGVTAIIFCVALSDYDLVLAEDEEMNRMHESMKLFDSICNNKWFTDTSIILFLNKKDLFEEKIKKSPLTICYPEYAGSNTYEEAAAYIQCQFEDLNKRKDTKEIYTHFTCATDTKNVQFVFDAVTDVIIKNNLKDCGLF
Chain of C3aR (P62873 2-340 partner limits assumed): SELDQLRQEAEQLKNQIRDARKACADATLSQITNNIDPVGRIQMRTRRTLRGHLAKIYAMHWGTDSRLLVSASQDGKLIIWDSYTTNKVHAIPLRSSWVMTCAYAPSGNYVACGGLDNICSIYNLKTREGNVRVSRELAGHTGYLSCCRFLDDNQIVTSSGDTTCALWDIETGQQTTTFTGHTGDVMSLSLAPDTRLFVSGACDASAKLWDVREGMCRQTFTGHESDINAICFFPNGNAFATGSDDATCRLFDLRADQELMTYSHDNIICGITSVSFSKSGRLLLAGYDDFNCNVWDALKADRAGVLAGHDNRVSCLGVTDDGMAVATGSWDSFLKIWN
Chain of C3aR (P59768 2-68 partner limits assumed): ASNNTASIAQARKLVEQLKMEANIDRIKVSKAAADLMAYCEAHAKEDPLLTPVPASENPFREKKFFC

Structure (SMILES): Cc1cc(C(c2ccc(Cl)cc2)c2ccc(Cl)cc2)sc1C(=O)N[C@@H](CCCNC(=N)N)C(=O)O [JR14a, reference compound]
- Mean Diff. of pIC50, WT vs. I98A (C3aR I98^3.28A; [2]): 0.356
- remaining activity at 0.01 µM (C3aR I98^3.28A; I98A, Log[JR14a (M)] -8, single replicates, read-out: cAMP response (% Forskolin)): 49.1%
- remaining activity at 0.001 µM (C3aR I98^3.28A; I98A, Log[JR14a (M)] -9, single replicates, read-out: cAMP response (% Forskolin)): 88.6%
- remaining activity at 0.0001 µM (C3aR I98^3.28A; I98A, Log[JR14a (M)] -10, single replicates, read-out: cAMP response (% Forskolin)): 95.5%
- remaining activity at 10 pM (C3aR I98^3.28A; I98A, Log[JR14a (M)] -11, single replicates, read-out: cAMP response (% Forskolin)): 93.5%
- ΔpIC50 ± SE of Diff. (C3aR I98^3.28A; I98^3.28A relative to WT C3aR): -0.36 ± 0.02
- IC50 (C3aR I98^3.28A; IC50, I98^3.28A, dose-response plot): 9.13 nM
- IC50 (C3aR I98^3.28A; pIC50 (Replicate), I98^3.28A, individual replicates): 6.17 nM and 11.5 nM and 9.77 nM
- IC50 (C3aR I98^3.28A; pIC50 ± SEM (Mean), I98^3.28A, mean of independent experiments): 8.91 nM
- Mean Diff. of pIC50, WT vs. H81A (C3aR H81^2.63A; [2]): 0.544
- remaining activity at 0.001 µM (C3aR H81^2.63A; H81A, Log[JR14a (M)] -9, single replicates, read-out: cAMP response (% Forskolin)): 94.5%
- remaining activity at 0.0001 µM (C3aR H81^2.63A; H81A, Log[JR14a (M)] -10, single replicates, read-out: cAMP response (% Forskolin)): 95.5%
- remaining activity at 10 pM (C3aR H81^2.63A; H81A, Log[JR14a (M)] -11, single replicates, read-out: cAMP response (% Forskolin)): 93.3%
- ΔpIC50 ± SE of Diff. (C3aR H81^2.63A; H81^2.63A relative to WT C3aR): -0.54 ± 0.05
- IC50 (C3aR H81^2.63A; H81^2.63A, individual replicates, read-out: pIC50 (Replicate) (converted)): 6.31 nM
- IC50 (C3aR H81^2.63A; IC50, H81^2.63A, dose-response plot): 12.4 nM
- IC50 (C3aR H81^2.63A; pIC50 (Replicate), H81^2.63A, individual replicates): 12 nM and 16.2 nM and 18.2 nM
- ΔpIC50 ± SE of Diff. ([1]; I102^3.32A/I421^7.39A relative to WT C3aR): -2.34 ± 0.08
- IC50 ([1]; IC50, I102^3.32A/I421^7.39A, dose-response plot): 1590 nM
- IC50 ([1]; pIC50 (Replicate), I102^3.32A/I421^7.39A, individual replicates): 2450 nM and 1150 nM and 1740 nM
- IC50 ([1]; pIC50 ± SEM (Mean), I102^3.32A/I421^7.39A, mean of independent experiments): 1700 nM
- ΔBRET (ligand-vehicle) (C3aR; Log[ligand (M)] -6): 0.012 and 0.008 and 0.015 and 0.018
- ΔBRET (ligand-vehicle) (C3aR; Log[ligand (M)] -7): 0.005 and 0.015 and 0.017
- ΔBRET (ligand-vehicle) (C3aR; Log[ligand (M)] -8): 0.004 and 0.00244 and 0.012 and 0.018
- ΔBRET (ligand-vehicle) (C3aR; Log[ligand (M)] -9): 0.002 and -0.000881 and 0.00951 and 0.012
- ΔBRET (ligand-vehicle) (C3aR; Log[ligand (M)] -10): 0.00084 and -0.0022 and 0.006 and 0.009
- ΔBRET (ligand-vehicle) (C3aR; Log[ligand (M)] -11): 0.001 and -0.004 and 0.005 and 0.010
- ΔBRET (ligand-vehicle) (C3aR; Log[ligand (M)] -12): -6.28e-5 and 0.00465 and 0.004
- EC50 (C3aR; dose-dependent increase in BRET ratio, read-out: EC50): 5 nM
- EC50 (C3aR; pEC50 ± SEM, Gi recruitment to C3aR, Appendix Table S1A): 4.57 nM
- Span Value (C3aR; span of ΔBRET curve, Figure EV1A numerical data): 0.010
